Laboratory results reported in patent publication US20040259765A1, “Formulations of non-steroidal anti-inflammatory agents to treat pathologic ocular angiogenesis” (priority 2003, published 2004).

Test system: retinal neovascularization
Assay: rat pup model of retinopathy of prematurity (oxygen-induced retinopathy)
Assay type: in vivo
Settings: local administration, FIG. 1
Description: FIG. 1. […] Anecortave acetate was tested for its angiostatic efficacy in a rat pup model of retinopathy of prematurity (Penn, at al., Investigative Ophthalmology & Visual Science, “The Effect of an Angiostatic Steroid on Neovascularization in a Rat Model of Retinopathy of Prematurity,” Vol. 42(1):283-290, January 2001). Newborn rat pups were placed in an atmosphere of varying oxygen content. The rats received a single intravitreal injection of vehicle or anecortave acetate (500 μg) upon return to room air (day 14) or 2 days later (day 16). There was significant retinal neovascularization in the rats that received vehicle injections.

With `CC(=O)OCC(=O)[C@@]1(O)CC[C@H]2[C@@H]3CCC4=CC(=O)CC[C@]4(C)C3=CC[C@@]21C` [Anecortave acetate, 4,9(11)-pregnadien-17α,21-diol-3,20dione-21-acetate] the “preretinal neovascularization (neovascular score)” value was “inhibits”.
